Broadly, the IC50 is the point on the concentration scale where inhibition reaches its midpoint.

One experiment deals with A2058 cells. Nature of the experiment: Chemotaxis Assay (LPA-induced migration of A2058 cells). Type of experiment: cell-based. Conditions: Homo sapiens, 4 to 8 hours, crystal violet 590 nm. As for the experimental part:
For monitoring the migration of cells, Neuroprobe ChemoTx® System plates ([…], 5.7 mm diameter sites; Gaithersburg, MD, USA) were utilized. To induce cell migrations, a concentration of […] or vehicle in DMEM were loaded to the bottom chamber. A total of 15,000 A2058 cells, which were starved for 24 hr following treated with test compounds or vehicle, were then applied to the upper membrane coated with 0.001% fibronectin. The plate was incubated for 4 to 8 hours to allow cell migration. Following incubation, the plate was dissembled, and the migrated cells were visualized by crystal violet staining. The stained area with crystal violet was quantified by measuring the absorbance at 590 nm and the relative percentage of the control was calculated.

In a further experiment the target is T1, hLPAR1 (Homo sapiens, UniProt Q92633).
T1 construct: expressed in transfected cells
Nature of the experiment: Ca2+ Flux Assay (B103 cells stably expressing hLPAR1). Conditions: LPA-induced calcium release, Fura-2 AM, compound 20 min at RT. Type of experiment: cell-based. Here is the method:
B103 cells stably expressing hLPAR1 were seeded at a density of 1.0×10^5 cells per well in clear flat-bottom black 96-well plates and incubated overnight in complete media. The following day, the cells were pre-incubated in serum-free media for 2 hours prior to ensure cellular equilibration. For the loading a calcium-sensitive fluorescent dye, the cells were treated with a concentration of 5 μM Fura-2 AM dye (Sigma, F1225) in Hank's buffered salt solution (HBSS) supplemented with 20 mM HEPES, […], and 0.3% fatty-acid-free bovine serum albumin for 40 minutes at room temperature (RT). Test compounds, prepared in DMSO, were then added to each well and incubated for 20 minutes at RT. To induce calcium release, a concentration of […] in HBSS supplemented with 20 mM HEPES, and 0.3% fatty-acid-free bovine serum albumin was introduced. Intracellular calcium mobilization was subsequently quantified by monitoring the fluorescence intensity using the Spark® multimode microplate reader (TECAN).

T1 sequence (Q92633 whole entry): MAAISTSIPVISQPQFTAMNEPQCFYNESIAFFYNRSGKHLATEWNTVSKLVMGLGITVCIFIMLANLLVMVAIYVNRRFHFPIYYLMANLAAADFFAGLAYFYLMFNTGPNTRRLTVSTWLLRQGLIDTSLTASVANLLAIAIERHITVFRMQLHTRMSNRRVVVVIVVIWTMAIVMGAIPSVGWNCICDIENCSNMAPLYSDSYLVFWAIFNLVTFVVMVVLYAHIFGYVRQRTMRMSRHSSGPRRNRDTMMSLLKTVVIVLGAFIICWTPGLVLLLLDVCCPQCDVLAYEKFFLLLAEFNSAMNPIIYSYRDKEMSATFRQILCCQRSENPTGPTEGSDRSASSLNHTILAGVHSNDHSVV

With `Cc1noc(C2CCN(c3ccc(C4(C(=O)NS(=O)(=O)C5(CC(=O)O)CC5)CC4)cc3)CC2)c1NC(=O)O[C@H](C)c1ccccc1` [Compound 76], the IC50 with A2058 cells was 100 to 500 nM; at hLPAR1, less than 10 nM.
For `CO[C@@H](C(=O)Nc1c(C)noc1C1CCN(c2ccc(C3(C(=O)O)CC3)cc2)CC1)c1ccccc1` [Compound 47] the same measures were 500 to 5000 nM and 200 to 3000 nM.
For `Cc1noc(C2CCN(c3ccc(C4(C(=O)O)CC4)cc3)CC2)c1NC(=O)N[C@H](C)c1ccccc1` [Compound 16] the same measures were 500 to 5000 nM and 10 to 200 nM.
On the same counts, the results for `Cc1noc(C2CCN(c3ccc(C4(C(=O)NS(=O)(=O)C5(C(N)=O)CC5)CC4)cc3)CC2)c1NC(=O)O[C@H](C)c1ccccc1` [Compound 73, (1R)-1-phenylethyl N-(5-{1-[4-(1-{[(1-carbamoylcyclopropyl)sulfonyl]carbamoyl}cyclopropyl)phenyl]piperidin-4-yl}-3-methyl-1,2-oxazol-4-yl)carbamate] are less than 100 nM and less than 10 nM.
Take `C[C@@H](OC(=O)Nc1c(C2CCN(c3ccc(C4(C(=O)O)CC4)cc3)CC2)nnn1C)c1ccccc1Cl` [Compound 27, 1-(4-{4-[5-({[(1R)-1-(2-chlorophenyl)ethoxy]carbonyl}amino)-1-methyl-1H-1,2,3-triazol-4-yl]piperidin-1-yl}phenyl)cyclopropane-1-carboxylic acid]: the IC50 in the experiment with A2058 cells was less than 100 nM; at hLPAR1, less than 10 nM.
For `Cc1noc(C2CCN(c3ccc(C4(C(=O)NS(=O)(=O)CC5(C)COC5)CC4)cc3)CC2)c1NC(=O)O[C@@H](C)c1ccccc1` [Compound 81] the same measures were less than 100 nM and less than 10 nM.
For `COc1cc(C2(C(=O)O)CC2)ccc1N1CCC(c2nnn(C)c2NC(=O)O[C@H](C)c2ccccc2)CC1` [Compound 4] the same measures were 500 to 5000 nM and less than 10 nM.
On the same counts, the results for `Cc1noc(C2CCN(c3ccc(C4(C(=O)O)CC4)cc3)CC2)c1Nc1cccc(-c2ccccc2)n1` [Compound 49] are 500 to 5000 nM and 10 to 200 nM.
Take `Cc1noc(C2CCN(c3ccc(C4(C(=O)O)CC4)cc3)CC2)c1NC(=O)OC1C2C[C@H]3C[C@@H](C2)C[C@@H]1C3` (stereo partly shown) [Compound 97]: the IC50 in the experiment with A2058 cells was in the range of 500 to 5000 nM; on hLPAR1, 200 to 3000 nM.
For `Cc1ncnc(C2CCN(c3ccc(C4(C(=O)O)CC4)cc3)CC2)c1NC(=O)O[C@H](C)c1ccccc1` [Compound 29] the same measures were 500 to 5000 nM and 200 to 3000 nM.
Regarding `Cc1ccccc1[C@@H](C)OC(=O)Nc1c(C)noc1C1CC2(C1)CN(c1ccc(C3(C(=O)NS(=O)(=O)CCC(=O)O)CC3)cc1)C2` [Compound 31, 3-({[1-(4-{6-[3-methyl-4-({[(1R)-1-(2-methylphenyl)ethoxy]carbonyl}amino)-1,2-oxazol-5-yl]-2-azaspiro[3.3]heptan-2-yl}phenyl)cyclopropyl]formamido}sulfonyl)propanoic acid], the IC50 with A2058 cells was less than 100 nM; on hLPAR1, 10 to 200 nM.
`COC(=O)C(C)(C)S(=O)(=O)NC(=O)C1(c2ccc(N3CCC(c4onc(C)c4NC(=O)O[C@H](C)c4ccccc4)CC3)cc2)CC1` [Compound 69, methyl 2-methyl-2-[[1-[4-[4-[3-methyl-4-[[(1R)-1-phenylethoxy]carbonylamino]isoxazol-5-yl]-1-piperidyl]phenyl]cyclopropanecarbonyl]sulfamoyl]propanoate]: the IC50 is less than 100 nM in the experiment on A2058 cells and less than 10 nM on hLPAR1.
For `COc1c(C)cc(NC(=O)O[C@H](C)c2ccccc2)c(C2CCN(c3ccc(C4(C(=O)O)CC4)cc3)CC2)c1C` [Compound 18] the same measures were 500 to 5000 nM and 200 to 3000 nM.
On to `Cc1noc(C2CCN(c3ccc(C4(C(=O)O)CC4)cc3)CC2)c1NC(=O)O[C@H](C)c1ccccc1C(C)(C)F` [Compound 30], for which the half-maximal inhibitory concentration (IC50) in the experiment on A2058 cells was 500 to 5000 nM; at hLPAR1 it was 10 to 200 nM.
